Experiments:
[1] = tested on: transplanted kidney of aged mice; experiment: Efficiency of kidney transplantation from aged mice into young mice; assay type: in vivo, mouse
Description: Furthermore, the efficiency of kidney transplantation following the removal of senescent cells from the kidney was evaluated. Kidneys extracted from aged mice of Example 21-1, untreated and treated with LX-403, were transplanted into 3-month-old young mice. Three days later, the efficiency of kidney transplantation was assessed through analysis of markers of aging and kidney damage. […] This improvement in transplantation efficiency was also observed when kidneys extracted from aged mice were transplanted after removing senescent cells under ex vivo conditions, such as by culturing them in an LX-403-containing medium.

naturally aged mice = experiment: p16, MMP3, IL6 mRNA in liver of naturally aged mice (qRT-PCR), Example 15; assay type: in vivo, mouse; conditions: untreated aged = 100%, 5 days; for p16 mRNA: LX-405 10 mg/kg ip, LX-801 100 mg/kg ip, LX-1102 100 mg/kg po, LX-1801 50 mg/kg ip, LX-2101 10 mg/kg ip, LX-3403 100 μg ip; for IL6 mRNA / MMP3 mRNA: doses as p16 mRNA
Description: In the same manner as in Example 7-1 of WO2023-085787 A1, naturally aged mice were administered LX-405 (5% DMSO in PBS solution, 10 mg/kg, intraperitoneal administration), LX-801 (PBS, 100 mg/kg, intraperitoneal administration), LX-1102 (0.5% CMC-Na solution, 100 mg/kg, oral administration), LX-1801 (PBS, 50 mg/kg, intraperitoneal administration), LX-2101 (0.5% CMC-Na solution, 10 mg/kg, intraperitoneal administration), and LX-3403 (mouse anti-PD-1 antibody (BioXcell), 100 μg, intraperitoneal administration) for 5 days under the following conditions. The control group was administered only the solution in the same volume. After drug administration was completed, the method described in each Example below was performed. The mouse was sacrificed in the same manner as Example 7-2 and 7-6 of WO2023-085787 A1. Total RNA was extracted from liver tissue, and qRT-PCR was performed and analyzed using synthesized cDNA. […] The mRNA amounts of p16, MMP3, and IL6 after natural aging were induced were calculated as 100% and compared them with the mRNA amounts of p16, MMP3, and IL6 after treatment with the test compound. Furthermore, an open field test was performed to analyze aging-related frailty in mice using the same method as Example 7-7 of WO2023-085787 A1. […] The amount of activity evaluated after inducing aging was calculated as 100% and compared it with the amount of activity evaluated after treatment with the test compound.

[2] = tested on: HMGN1 secreted from senescent human cells; experiment: HMGN1 secretion (ELISA) from doxorubicin-induced senescent human cells, Example 11; assay type: cell-based; conditions: senescent untreated = 100%; 30 μM; 90 μM for LX-305, 1302, 1603, 2005, 2702, 2901, 3106; 270 μM for LX-1103, 2007
senescent A549 cells = experiment: Viability of senescent A549 cancer cells (CellTiter-Glo), Example 12; assay type: cell-based, human; conditions: 0 μM = 100
Description: Cells were treated with doxorubicin or control (DMSO) and cultured.
Cancer cells in which aging was induced by treatment with doxorubicin were treated with the test compound at designated concentrations and measured using the CellTiter-Glo Luminescent Cell Viability Assay (Promega).

[3] = tested on: naturally aged C57BL6J mice; experiment: Kidney damage markers (urea, creatinine, Agtr1a mRNA) in naturally aged mice, Example 21-9, Table 24; assay type: in vivo, mouse; conditions: untreated aged = 100%; for Agtr1a mRNA (%): qRT-PCR; for Creatinine (%) / Urea (%): serum
Description: 22-month-old female C57BL6J mice (KRIBB Laboratory Animal Resource Center) were acclimated to the experimental environment for one week, after which the aged mice were randomly assigned to experimental and control groups. Eight-week-old, non-aged mice served as controls. LX-403 was mixed in a 10% ethanol solution of PEG400 and administered orally at a concentration of 25 mg/kg daily for 21 days, or administered to the skin, joints, or eyes at a concentration of 1 μM. LX-1801 was mixed in distilled water with 4% DMSO, 30% PEG300, and 5% Tween80 and administered to the skin, joints, or eyes at a concentration of 0.4 μM daily for 21 days. LX-2001 was mixed in PBS and administered to the skin, joints, or eyes at a concentration of […] daily for 21 days. LX-2002 was mixed in distilled water with 4% DMSO, 30% PEG300, and 5% Tween80 and administered to the skin, joints, or eyes at a concentration of 2 μM daily for 21 days. […] LX-2005 was mixed in distilled water with 4% DMSO, 30% PEG300, and 5% Tween80 and administered to the skin, joints, or eyes at a concentration of 90 μM daily for 21 days. LX-2007 was mixed in distilled water with 4% DMSO, 30% PEG300, and 5% Tween80 and administered to the skin, joints, or eyes at a concentration of 90 μM daily for 21 days. […] LX-3002 was mixed in distilled water with 4% DMSO, 30% PEG300, and 5% Tween80 and administered orally at a concentration of 10 mg/kg daily for 21 days. […] LX-5411 was mixed in 5% PBS and administered orally at a concentration of 10 mg/kg daily for 21 days or administered to the skin, joints, or eyes at a concentration of 3 μM. LX-5701 was mixed in PBS and administered orally at a concentration of 360 mg/kg daily for 21 days. LX-6807 was mixed in saline and administered intraperitoneally at a concentration of 1 mg/kg daily for 21 days. LX-2101 or LX-2102 was mixed in PBS solution with 5% DMSO and administered intraperitoneally at a concentration of 20 mg/kg or 10 mg/kg, respectively, daily for 21 days. The control group received only the solution in the same volume. After the end of drug administration, the methods described in each example below were performed.
The levels of urea and creatinine, markers of kidney damage, in serum collected from mice were measured spectrophotometrically using kits (BioAssay Systems and Sigma). Additionally, the amount of Agtr1a mRNA, a marker of kidney damage, was measured using qRT-PCR as described in Example 7-2 of WO2023-085787 A1. […] The amount of each factor after aging was calculated as 100% and compared with the amount of each factor after test compound treatment.

[4] = tested on: mice with peritoneal fibrosis induced by chlorhexidine gluconate; experiment: Chlorhexidine gluconate (CHG) peritoneal fibrosis in mice, Example 20; assay type: in vivo, mouse
Excerpt: The anti-fibrosis activity of LX-5701 was confirmed using the same method as in Example 6-2 of WO2023-085787 A1. The thickness of the peritoneal mesothelial cell layer was quantitatively evaluated in mice with peritoneal fibrosis induced by chlorhexidine gluconate (CHG) under untreated and LX-5701-treated conditions.

Compound	p16 mRNA (naturally aged mice)	IL6 mRNA (naturally aged mice)	MMP3 mRNA (naturally aged mice)	Agtr1a mRNA (%) [3]	Creatinine (%) [3]	Urea (%) [3]	also measured
O=C(C(C[N+](=O)[O-])=NO)N1CCN(C(c2ccc(Cl)cc2)c2ccc(Cl)cc2)CC1 [LX-403]	–	–	–	–	–	–	p16 of transplanted kidney, serum urea and creatinine ([1]; 3 days after transplantation): reduced; efficiency of kidney transplantation ([1]; mouse, in vivo): improves the efficiency of kidney transplantation
COC(=O)c1ccc([C@H]2c3[nH]c4ccccc4c3C[C@H](C(=O)OC)N2C(=O)CCl)cc1 [LX-405]	76.9 (±6.8) %	73.6 (±7.4) %	64.7 (±11.5) %	–	–	–	–
S=C(N/N=C1\CCCc2cccnc21)N1CCN(c2ccccn2)CC1 [LX-801]	69.4 (±6.9) %	71.1 (±1.8) %	76.5 (±4.2) %	–	–	–	HMGN1 [2]: 265%; Survival (senescent A549 cells; 1.1 μM): 78.1%; Survival (senescent A549 cells; 10 μM): 12.7%; Survival (senescent A549 cells; […]): 58.5%
C[C@@H]1CC[C@@]23C[C@H](O)C(=O)[C@@]2(O)[C@]1(C)[C@H](OC(=O)CCl)C[C@@H](C1=CCn2c(=O)n(-c4ccccc4)c(=O)n2C1)[C@@H]3C [LX-1801, (2S,3aS,4S,5R,7R,8S,8aS,11R)-7-(1,3-Dioxo-2-phenyl-2,3,5,8-tetrahydro-1H-[1,2,4]triazolo[1,2-a]pyridazin-6-yl)-2,3a-dihydroxy-4,8,11-trimethyl-3-oxooctahydro-1H-4,8a-propanoazulen-5-yl 2-Chloroacetate]	77.4 (±5.2) %	56.8 (±19.3) %	47.1 (±15.6) %	–	–	–	–
CC1(C)CC[C@]2(NC(=O)C(C)(F)F)CC[C@]3(C)[C@H](C(=O)C=C4[C@@]5(C)C=C(C#N)C(=O)C(C)(C)[C@@H]5CC[C@]43C)[C@@H]2C1 [LX-2101, Omaveloxolone]	62.5 (±13.1) %	64.1 (±8.8) %	53.6 (±14.3) %	–	–	–	–
CCCC\C=C/C=C/C=C\CCCCCCCC(=O)O [LX-2707, Punicic acid]	–	–	–	68 (±3.3) %	73 (±4.3) %	78 (±3.1) %	–
O=C1C2CCN(CC2)C1CNC(=O)C(F)(F)F (centres unmarked) [LX-5701]	–	–	–	44 (±2.3) %	68 (±6.3) %	71 (±4.0) %	Submesothelial Thickness [4]: 41.8 (±7.5) μm
Cc1cccc([C@H](C)c2cnc[nH]2)c1C [LX-6807, Dexmedetomidine]	–	–	–	37 (±4.0) %	57 (±2.0) %	68 (±2.7) %	–
Tocofersolan [LX-3001]	–	–	–	61 (±2.0) %	75 (±3.2) %	81 (±5.4) %	HMGN1 [2]: 301%; Survival (senescent A549 cells; 1.1 μM): 101.6%; Survival (senescent A549 cells; 10 μM): 22.6%; Survival (senescent A549 cells; […]): 95.6%
